Earlier results, collected in patent publication US20190263765A1, “SYNERGISTIC ANTICOAGULANT COMPOSITION” (priority 2018, published 2019).

Details: background statement

SMILES	clearance from the body [h]	clearance from the body (in words)
CC(=O)CC(c1ccccc1)c1c(O)c2ccccc2oc1=O (centres unmarked) [warfarin]	72 to 96	–
O=c1oc2ccccc2c(O)c1C1CC(c2ccc(-c3ccc(Br)cc3)cc2)Cc2ccccc21 (centres unmarked) [brodifacoum]	–	requires months
